# Measurements from patent publication US9539238B2, “Pharmaceutical composition comprising a biguanide derivative as an active ingredient for preventing or treating glioblastoma” (ImmunoMet Therapeutics, Inc., priority 2015, dated 2017).
# Entries after “also recorded” stand apart in the source; their conditions may differ.
# Columns and labels:
# GSC11 and X01 = test: Neuro-glial differentiation (neuronal marker expression); assay type: cell-based, human
# [1] = tested on: stemness markers such as nestin, CD133, Sox-2, Notch 1, Notch 2, and Oct3/4 in GSC11 or X01; test: Western blotting of stemness markers; assay type: cell-based, human
# Method: (§1) For Western blotting, 20 μg total protein from each sample was treated with Laemmli sample buffer and heated at 100° C. for 5 minutes. This was then loaded into each well and was resolved by 8% SDS-polyacrylamide gel electrophoresis (PAGE) and eleetroblotted onto nitrocellulose membranes (GE Healthcare life-Sciences). Membranes were blocked in 5% non-fat dry milk in TBS-T, and incubated with antibodies for AMPK-mTOR pathway-related proteins, stemness markers, and EMT-related markers overnight at 4° C., and then probed with peroxidase-conjugated goat anti-rabbit IgG (1:2000, santa cruz) for 1 hour at room temperature. The washes were repeated and the membrane was developed with a chemiluminescent agent (ECL; Amersham Life Science, Inc.). Band densities were measured using TINA image software (Raytest, Straubenhardt, Germany).
# stem cell = test: MTT cell viability assay; assay type: cell-based; conditions: treated for 5 days, sublethal dose
# Method: The effect of HL156A, TMZ, and combined HL156A and temozolomide on the survival of cells was determined by 3-(4,5-dimethylthiazol-2-yl)-2,5-diphenyl tetrazolium bromide (MTT) assay. Cells were seeded in 96-well plates and incubated at 37° C. for 24 hours and treated with HL156A, TMZ, and the combination thereof for 5 days. MTT reagent (10 μl/well) was added, incubated at 37° C. for 4 hours and the absorbance was measured at 490 nm. Each experiment was repeated three times and the results were expressed as % viable cells over control.
# G-GSC11 spheroids = test: 3D collagen I matrix invasion assay; assay type: cell-based, human
# Method: The G-GSC11s grown in spheroid were cultured in collagen I matrices using polydimethylsiloxane (PDMS)-based micro-wells (diameter and depth of microwells: […] and 500 μm). The microwells were treated with a 1% poly(ethyleneimine) (Sigma-Aldrich, St. Louis, Mo., USA) solution for 10 minutes followed by 0.1% glutaraldehyde (Sigma-Aldrich, St. Louis, Mo., USA) for 30 minutes and washed with PBS overnight lo make PDMS wells adherent to collagen. The 4 mg/ml collagen I matrices are prepared from high-concentration rat tail collagen I (BD Bioscience, CA, USA) using the recommended manual provided by the manufacturer. Briefly, the amounts of 10× phosphate buffered saline (PBS), 1N NaOH, sterile dH2O, and collagen I were mixed to create gels based on the desired final concentration. The solution was well mixed and kept at 4° C. before use. To encapsulate G-GSC11 spheroid, 10 μl of a collagen I solution (4 mg/ml) were pipetted into the micro-well, single G-GSC11 spheroid was placed onto collagen I matrices from the culture plate, and 10 μl of a collagen I solution (4 mg/ml) was dropped onto G-GSC11 spheroid. The platform was incubated at 37° C. and 5% CO2 for 30 minutes. The cell viability was characterized by staining G-GSC11 spheroid with 8 μM Ethidium homodimer-1 (Invitrogen Korea, Seoul, South Korea) for 30 minutes at 37° C. before implantation in collagen matrix. After fall gelation, a superlayer of culture medium consisting of DMEM/F-12 with 2% 1×B27, 20 ng/ml 0.02% bFGF, 20 ng/ml 0.2% EGF, and 1% antibiotic-antimycotic solution (100× Gibco, Invitrogen Korea, Seoul, South Korea) was then added. To observe drug effects, drugs were mixed with medium considering the final concentration of each drug. […] To quantitate the invasion assay, the maximal area covered by migrating edges of cells was used as a parameter for defining invasiveness (invaded area at certain time/spheroid area at initial time×100). Data was analyzed through image analysis software ImageJ (NIH, Bethesda, Md., USA).
# GSC11 = test: 18F-FDG uptake (cellular metabolism); assay type: cell-based, human; conditions: 15 minutes incubation, radioactivity normalized to protein content
# Method: In order to assess the effect of drugs on the cellular metabolism, ^18F-FDG uptake was examined, GSC11 were plated on 12-well plates with 3×10^5 cells per well for 24 hours. The medium was changed to a glucose-free DMEM medium (Gibco, Invitrogen Korea, Seoul, South Korea) containing approximately 0.5 μCi of ^18F-FDG, followed by incubation for 15 minutes. The cells were washed with phosphate-buffered saline 3 times and 0.1 ml of lysis buffer was added to each well. The lysed cells were then harvested to measure the amount of radioactivity by Wallac 148 Wizard 3 gamma-counter (PerkinElmer Life and, Analytical Science, Shelton, Conn., USA). The radioactivity measured was normalized to protein content.
# [2] = tested on: AMPK and mTOR pathway of GSC11 and X01 cells; test: Western blotting of AMPK-mTOR pathway-related proteins; assay type: cell-based, human
# Method: as §1
# [3] = tested on: EMT-related markers such as β-catenin, zeb1, N-cadherin, and snail; test: Western blotting of EMT-related markers; assay type: cell-based, human; conditions: tumorspheres
# Method: as §1
# GSC11 and X01 cells = test: Neurosphere formation assay; assay type: cell-based, human; conditions: GSC11 and X01, cultured for 3 weeks
# Method: For Neurosphere formation assay, the GSC11 and X01 cells were cultured in medium consisting of DMEM/F-12 with 2% 1×B27, 20 ng/ml 0.02% bFGF, 20 ng/ml 0.02% EGF, and 1% antibiotic-antimycotic solution (100×, Gibco, Invitrogen Korea, Seoul, South Korea). The cells were cultured in different conditions for 3 weeks. […] Photographs of cells were obtained with a digital camera (DP70 Digital Microscope Camera; Olympus), using DP Controller software (Olympus).
# [4] = tested on: GSC11 orthotopic xenograft; test: Orthotopic xenograft mouse model; assay type: in vivo, male athymic nude mice; conditions: stained tumors
# Method: Finally, the effect of the drags on the tumors of orthotopic xenograft mice was analyzed, 4- to 8-week-old male athymic nude mice (Central Lab. Animal Inc., Seoul, South Korea) were used for experiments. Mice were housed in micro-isolator cages under sterile conditions and observed for at least 1 week before study initiation to ensure proper health. Lighting, temperature, and humidity were controlled centrally. All experimental procedures were approved by Yonsei University College of Medicine Institutional Animal Care and Use Committee. Mice were anesthetized with a solution of Zoletil® (30 mg/kg; Virbac Korea, Seoul, South Korea) and xylazine (10 mg/kg; Bayer Korea, Seoul, South Korea) delivered intraperitoneally. GSC11 were implanted into the right frontal lobe of nude mice using a guide-screw system within the skull. Mice received 5×10^5 cells via a Hamilton syringe (Dongwoo Science Co., Seoul, South Korea) inserted to a depth of 4.5 mm. Then, 15 mg/kg of HL156A, 66.6 mg/kg of TMZ, and their combination were administrated to mice (n=5 per group). HL156A was given to mice by oral administration every other day until the duration of the experiment and TMZ was administrated intraperitoneally, for 5 days from the day of tumorsphere injection. The body weight of mice was checked every other day. […]
structure (smiles),measurement,setting,value
"N=C(NC(=N)N1CCCC1)Nc1ccc(OC(F)(F)F)cc1 [HL156A, N—(N-(4-(trifluoromethoxy)phenyl)carbamimidoyl)pyrrolidine-1-carboximidamide]","neuro-glial differentiation (expression of olig2, Tuj1, GFAP)",GSC11 and X01,did not promote
same,"expression of stemness markers (CD133, OCT 3/4, Sox-2, Notch 1, Notch 2)",[1],Decreased expression
same,cell viability (% viable cells over control),stem cell,minimal effect
same,cell viability during the invasion experiment,G-GSC11 spheroids,no significant cell death
same,invasiveness,G-GSC11 spheroids; implanted cells and drugs together (FIG. 3A),decreased invasiveness; also recorded: lesser degree of invasiveness
same,invasiveness,"G-GSC11 spheroids; pre-implanted, drug treatment 12 hours after implantation (FIG. 3B)",decreased invasiveness
same,18F-FDG uptake,GSC11,markedly decreased
same,AMPK activation and consequent mTOR inhibition,[2],did not show expected AMPK activation
same,"expression of β-catenin, zeb1, and N-cadherin (EMT-related markers)",[3],altered; also recorded: diminished
same,number of neurospheres,GSC11 and X01 cells,markedly decreased
same,tumor margin versus control,[4],less irregular margin
